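Assay format: 96-well plates, 48-hour exposure. GI50 = concentration required for 50% inhibition of growth. TGI: concentration producing complete growth inhibition.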

Holding throughout (assay): NCI anticancer screen, dose series, 48 h
For assay [1], the system named is LOX IMVI melanoma.
Assay [2] concerns HOP-92 NSCLC.
Assay [3] has as its system NCI-H522 lung.
Assay [4] concerns NCI/ADR-RES ovarian.
Assay [5] concerns UACC-62 melanoma.
The subject of assay [6] is HCT-116 colon.
The subject of assay [7] is RPMI-8226 leukemia.
The test system of assay [8] is A498 renal.
Assay [9] concerns HL-60(TB) leukemia.
Assay [10] relates to NCI-H226 lung.

Regarding `CC(C)n1cc(-c2ccc3c(c2)N(C)CC3)c2c(NS(=O)(=O)c3ccn(C)n3)ccnc21`, the GI50 was 47.8 µM in assay [1]; 24.6 µM in assay [2]; 49.3 µM in [3]; 49.5 µM in [4]; 36.7 µM in assay [5]; 48 µM in assay [6]. The GI50 was 54.2 µM in assay [7], 36.3 µM in assay [8], 59.2 µM in assay [9] and 39.4 µM in assay [10]. Besides, the TGI in assay [1], in assay [2], in assay [3], in [4], in [5] and in [6] was greater than 100 µM throughout. Also, the TGI in [7], in assay [8], in [9] and in [10] was greater than 100 µM in each case.
Regarding `COc1ccc(C2=C(c3ccccc3)C(=O)N3CCCC3C2)cc1` (centres undefined), the GI50 in assay [1] was 0.115 µM; in [2] it was greater than 100 µM; in [3], 0.821 µM; in [4], 8.85 µM; in [5], 1.92 µM; in assay [6], 0.0817 µM. Also, the GI50 was 0.318 µM in [7], greater than 100 µM in [8] and 0.493 µM in assay [9]. Moreover, the TGI in assay [1], in [2], in [3], in assay [4], in assay [5] and in assay [6] was greater than 100 µM in each case. In addition, the TGI in assay [7] is greater than 100 µM; in assay [8], greater than 100 µM; in [9], greater than 63.6 µM; in assay [10] it was greater than 100 µM.
As for `CC(C)[C@@]12C[C@@H](OC(=O)COC(=O)c3ccccc3)[C@@](C)(O1)[C@@H]1CC[C@@H](C)[C@H]1[C@@H]2OC(=O)/C=C/c1ccccc1`, the GI50 in assay [1] was greater than 63.4 µM; in assay [2], 33.5 µM; in assay [3], greater than 100 µM; in [4] it was 0.47 µM; in [5], greater than 100 µM; in [6] it was greater than 100 µM. For the same compound, the GI50 was 82.1 µM in assay [7], 0.153 µM in assay [8], greater than 75.1 µM in [9] and 18.7 µM in assay [10]. Besides, the TGI in [1], in assay [2], in assay [3], in assay [4], in assay [5] and in [6] was greater than 100 µM in each case. Further, the TGI in [7] is greater than 100 µM; in assay [8], 0.529 µM; in assay [9], greater than 100 µM; in assay [10], greater than 100 µM.
With `Cc1cc(O)ccc1C1(c2ccc(O)cc2C)OC(=O)c2ccccc21`, the GI50 in [1] was 18.5 µM; in assay [2] it was 15.4 µM; in [3], 18.5 µM; in [4] it was 21.1 µM; in assay [5], 18 µM; in [6], 18.6 µM. Also, the GI50 is 28.1 µM in assay [7], 17.7 µM in [8], 22.8 µM in assay [9] and 19.1 µM in assay [10]. Also, the TGI came to 37.7 µM in [1]; 29.7 µM in assay [2]; 35 µM in assay [3]; 49.6 µM in assay [4]; 35.9 µM in assay [5]; 33.7 µM in assay [6]. For the same compound, the TGI in [7] was found to be 78.7 µM; in assay [8], 33.3 µM; in assay [9], 64.2 µM; in assay [10] it was 41 µM.
With `COc1ccc(-c2cc(=O)c3c(OC)c4ccoc4c(/C=C/C=O)c3o2)cc1`, the GI50 was 1.08 µM in [1]; 16.8 µM in [2]; 34.6 µM in assay [3]; 2.84 µM in [4]; 1.77 µM in assay [5]; 1.06 µM in assay [6]. For the same compound, the GI50 in [7] was 1.37 µM; in assay [8], 17.2 µM; in [9], 2.72 µM; in assay [10], 2.93 µM. The TGI is 2.34 µM in assay [1]; 98.7 µM in assay [2]; greater than 100 µM in [3]; 48 µM in assay [4]; 5.11 µM in assay [5]; 3.43 µM in assay [6]. The TGI in assay [7] was 5.29 µM; in [8], 71.9 µM; in [9], 8.33 µM; in assay [10], 8.89 µM.
For `CCOC(=O)C1=C(C)NC2SC(=O)/C(=C\c3cccc(Cl)c3)N2C1c1ccccc1` (centres undefined), the GI50 in assay [1], in assay [2], in assay [3], in assay [4], in [5] and in assay [6] was greater than 100 µM in each case. The GI50 in [7], in assay [8], in [9] and in assay [10] was greater than 100 µM throughout. Moreover, the TGI in assay [1], in assay [2], in assay [3], in assay [4], in assay [5] and in [6] was greater than 100 µM in each case. Further, the TGI in [7], in assay [8], in [9] and in [10] was greater than 100 µM in each case.

The record behind these values is PubChem BioAssay (NCI).
